The source of these data is patent US7297705B2, “Azaindolylalkylamine derivatives as 5-hydroxytryptamine-6 ligands” (Wyeth, priority 2001, dated 2007).

For orientation: Ki means a measure of affinity in units of concentration, obtained from inhibition or displacement.

SMILES strings stand for the structures. Read-outs that look alike come from different tables or passages of the source.

This test has as its target T1, human cloned 5-HT6 receptors (Homo sapiens, UniProt P50406).
T1 construct: expressed in transfected cells; host or cells: Hela cells
Description: 5-HT6 binding affinity, [3H]-LSD displacement on membranes of Hela cells expressing human cloned 5-HT6 receptors. The method, then: Comparative Evaluation of 5-HT6 Binding Affinity of Test Compounds
The affinity of test compounds for the serotonin 5-HT6 receptor is evaluated in the following manner. Cultured Hela cells expressing human cloned 5-HT6 receptors are harvested and centrifuged at low speed (1,000×g) for 10.0 min to remove the culture media. The harvested cells are suspended in half volume of fresh physiological phosphate buffered saline solution and recentrifuged at the same speed. This operation is repeated. The collected cells are then homogenized in ten volumes of 50 mM Tris.HCl (pH 7.4) and 0.5 mM EDTA. The homogenate is centrifuged at 40,000×g for 30.0 min and the precipitate is collected. The obtained pellet is resuspended in 10 volumes of Tris.HCl buffer and recentrifuged at the same speed. The final pellet is suspended in a small volume of Tris.HCl buffer and the tissue protein content is determined in aliquots of 10-25 μl volumes. Bovine Serum Albumin is used as the standard in the protein determination according to the method described in Lowry et al., J. Biol. Chem., 193:265 (1951). The volume of the suspended cell membranes is adjusted to give a tissue protein concentration of 1.0 mg/ml of suspension. The prepared membrane suspension (10 times concentrated) is aliquoted in 1.0 ml volumes and stored at −70° C. until used in subsequent binding experiments.
The reaction is allowed to proceed in the dark for 120 min at room temperature, at which time, the bound ligand-receptor complex is filtered off on a 96 well unifilter with a Packard Filtermate® 196 Harvester. The bound complex caught on the filter disk is allowed to air dry and the radioactivity is measured in a Packard TopCount® equipped with six photomultiplier detectors, after the addition of 40.0 μl Microscint®-20 scintillant to each shallow well. The unifilter plate is heat-sealed and counted in a PackardTopCount® with a tritium efficiency of 31.0%.
Binding in the presence of varying concentrations of test compound is expressed as a percentage of specific binding in the absence of test compound. The results are plotted as log % bound versus log concentration of test compound. […] A linear regression line of data points is plotted, from which the IC50 value is determined and the Ki value is determined based upon the following equation: Ki=IC50/(1+L/KD) where L is the concentration of the radioactive ligand used and KD is the dissociation constant of the ligand for the receptor, both expressed in nM.

T1 sequence (P50406 whole entry): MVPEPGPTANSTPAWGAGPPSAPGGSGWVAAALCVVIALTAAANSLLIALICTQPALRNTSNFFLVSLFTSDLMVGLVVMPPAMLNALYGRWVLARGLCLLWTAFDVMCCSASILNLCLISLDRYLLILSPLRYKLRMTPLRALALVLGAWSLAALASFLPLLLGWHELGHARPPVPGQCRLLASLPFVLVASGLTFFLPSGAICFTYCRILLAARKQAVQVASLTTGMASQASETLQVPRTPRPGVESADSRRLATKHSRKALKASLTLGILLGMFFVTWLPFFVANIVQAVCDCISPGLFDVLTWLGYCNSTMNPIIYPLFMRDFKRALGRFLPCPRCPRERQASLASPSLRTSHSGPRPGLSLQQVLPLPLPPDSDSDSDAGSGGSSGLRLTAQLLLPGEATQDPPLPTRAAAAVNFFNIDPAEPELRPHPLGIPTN

Turning to `COc1ccc(S(=O)(=O)n2cc(CCN)c3cccnc32)cc1OC` [Example 85], the inhibitory constant (Ki) (read-out: 5-HT6 Binding Ki) was 0.106 µM.
Consider `N#Cc1ccccc1S(=O)(=O)n1cc(CCN)c2cccnc21` [Example 87], for which the Ki is 0.079 µM.
`NCCc1cn(S(=O)(=O)c2ccccc2C(F)(F)F)c2ncccc12` [Example 89] came in with an inhibition constant Ki of 0.0383 µM.
In turn, `NCCc1cn(S(=O)(=O)c2cccc(C(F)(F)F)c2)c2ncccc12` [Example 90] came in with a Ki of 0.021 µM.
Consider `CC(C)(C)c1ccc(S(=O)(=O)n2cc(CCN)c3cccnc32)cc1` [Example 91], for which, under “read-out: 5-HT6 Binding Ki”, the inhibition constant (Ki) was 0.114 µM.
As for `CC(C)c1ccc(S(=O)(=O)n2cc(CCN)c3cccnc32)cc1` [Example 93], the Ki was determined as 0.0393 µM.
As to `CN(C)CCc1cn(S(=O)(=O)c2ccccc2)c2ncccc12` [Example 94], affinity was put at a Ki of 0.04 µM.
On to `CN(C)CCc1cn(S(=O)(=O)c2ccc3ccccc3c2)c2ncccc12` [Example 96], for which, where the note is “read-out: 5-HT6 Binding Ki”, the inhibitory constant (Ki) was found to be 0.0196 µM.
Take `COc1cccc(S(=O)(=O)n2cc(CCN(C)C)c3cccnc32)c1` [Example 97]: the Ki amounted to 0.0246 µM.
Still for that read-out and setting: the same measure for `COc1ccc(S(=O)(=O)n2cc(CCN(C)C)c3cccnc32)cc1OC` [Example 99]: 0.0766 µM.
The same measure, in the same setting: the same measure for `CN(C)CCc1cn(S(=O)(=O)c2ccccc2C(F)(F)F)c2ncccc12` [Example 103]: 0.038 µM.
The same measure, in the same setting: in the case of `CN(C)CCc1cn(S(=O)(=O)c2cccc(C(F)(F)F)c2)c2ncccc12` [Example 104] it was 0.0293 µM; in that of `Cc1ccc(C)c(S(=O)(=O)n2cc(CCN)c3cccnc32)c1` [Example 108], 0.0237 µM; in that of `NCCc1cn(S(=O)(=O)c2ccc(F)c(Cl)c2)c2ncccc12` [Example 109], 0.0613 µM.
On to `NCCc1cn(S(=O)(=O)c2ccc(F)cc2Cl)c2ncccc12` [Example 110], for which the affinity, expressed as Ki, was 0.0383 µM.
Same read-out and setting: the same measure for `Cc1ccc(S(=O)(=O)n2cc(CCN)c3cccnc32)cc1Cl` [Example 111]: 0.0036 µM; for `Cc1ccc(F)cc1S(=O)(=O)n1cc(CCN)c2cccnc21` [Example 112]: 0.0387 µM.
`COc1ccc(Cl)cc1S(=O)(=O)n1cc(CCN)c2cccnc21` [Example 113]: the inhibitory constant (Ki) (read-out: 5-HT6 Binding Ki) came out at 0.186 µM.
For the compound `Cc1cc(S(=O)(=O)n2cc(CCN)c3cccnc32)c(C)cc1Cl` [Example 114], the affinity corresponds to a Ki of 0.0177 µM.
Regarding `NCCc1cn(S(=O)(=O)c2ccccc2F)c2ncccc12` [Example 115], the inhibition constant Ki (read-out: 5-HT6 Binding Ki) amounted to 0.0393 µM.
Compound `NCCc1cn(S(=O)(=O)c2cccc(F)c2)c2ncccc12` [Example 116] displayed an inhibitory constant (Ki) of 0.0134 µM.
In turn, `NCCc1cn(S(=O)(=O)c2ccc(F)c(F)c2)c2ncccc12` [Example 118] came in with an inhibition constant Ki of 0.0893 µM.
As for `NCCc1cn(S(=O)(=O)c2ccccc2Cl)c2ncccc12` [Example 120], the inhibition constant (Ki) came to 0.027 µM.
`NCCc1cn(S(=O)(=O)c2cccc(Cl)c2)c2ncccc12` [Example 121] registered a Ki of 0.006 µM.
Still for that read-out and setting: the same measure for `NCCc1cn(S(=O)(=O)c2ccc(Cl)cc2)c2ncccc12` [Example 122]: 0.05 µM; for `NCCc1cn(S(=O)(=O)c2ccc(Cl)s2)c2ncccc12` [Example 129]: 0.0117 µM; for `NCCc1cn(S(=O)(=O)c2ccc(Br)s2)c2ncccc12` [Example 130]: 0.0085 µM.
On the same count and under the same terms, the same measure for `NCCc1cn(S(=O)(=O)c2cc(Cl)c(Cl)s2)c2ncccc12` [Example 131]: 0.0197 µM.
In the case of `NCCc1cn(S(=O)(=O)c2cc(Cl)sc2Cl)c2ncccc12` [Example 132], the inhibitory constant (Ki) (read-out: 5-HT6 Binding Ki) was 0.052 µM.
In the case of `NCCc1cn(S(=O)(=O)c2cc(Br)c(Br)s2)c2ncccc12` [Example 133], the Ki worked out at 0.0107 µM.
Still for that read-out and setting: the same measure for `NCCc1cn(S(=O)(=O)c2sc(Cl)cc2Br)c2ncccc12` [Example 134]: 0.029 µM.
Take `NCCc1cn(S(=O)(=O)c2cc(Br)c(Cl)s2)c2ncccc12` [Example 135]: where the note is “read-out: 5-HT6 Binding Ki”, the Ki was 0.0163 µM.
Same read-out and setting: the same measure for `NCCc1cn(S(=O)(=O)c2c(Cl)sc(Cl)c2Br)c2ncccc12` [Example 136]: 0.04 µM.
Consider `NCCc1cn(S(=O)(=O)c2c(Cl)nc3ccccn23)c2ncccc12` [Example 137], for which, for the setting “read-out: 5-HT6 Binding Ki”, the Ki is 0.025 µM.
In the case of `NCCc1cn(S(=O)(=O)c2cccc3nonc23)c2ncccc12` [Example 141], under “read-out: 5-HT6 Binding Ki”, the Ki was determined as 0.0423 µM.
Regarding `NCCc1cn(S(=O)(=O)c2cccc3nsnc23)c2ncccc12` [Example 142], the Ki (read-out: 5-HT6 Binding Ki) came to 0.0697 µM.
On to `CN(C)CCc1cn(S(=O)(=O)c2ccc(F)cc2Cl)c2ncccc12` [Example 144], for which the Ki is 0.0563 µM.
Still for that read-out and setting: in the case of `Cc1cc(S(=O)(=O)n2cc(CCN(C)C)c3cccnc32)c(C)cc1Cl` [Example 146] it was 0.0317 µM; in that of `CN(C)CCc1cn(S(=O)(=O)c2ccccc2F)c2ncccc12` [Example 147], 0.0473 µM.
On the same count and under the same terms, the same measure for `CN(C)CCc1cn(S(=O)(=O)c2cccc(F)c2)c2ncccc12` [Example 148]: 0.028 µM; for `CN(C)CCc1cn(S(=O)(=O)c2ccc(Cl)s2)c2ncccc12` [Example 151]: 0.013 µM; for `CN(C)CCc1cn(S(=O)(=O)c2cc(Cl)sc2Cl)c2ncccc12` [Example 152]: 0.0537 µM.
`CN(C)CCc1cn(S(=O)(=O)c2c(Cl)nc3ccccn23)c2ncccc12` [Example 153] registered a Ki of 0.0573 µM.
Still for that read-out and setting: in the case of `NCCc1cn(S(=O)(=O)c2c(Cl)nc3sccn23)c2ncccc12` [Example 154] it was 0.0074 µM.
On to `NCCc1cn(S(=O)(=O)c2c(Cl)nc3sc(Cl)cn23)c2ncccc12` [Example 158], for which the Ki (read-out: 5-HT6 Binding Ki) was 0.0907 µM.
